Laboratory results as given in ChEMBL document CHEMBL1909046, “DrugMatrix in vitro pharmacology data”.

Assays:
[1] = molecular target: Cytochrome P450 3A4 (Homo sapiens, UniProt P08684); settings: bti-tn-5b1-4
[2] = molecular target: T1, Glucocorticoid receptor (Homo sapiens, UniProt P04150); settings: hela s3
T1 sequence (P04150 whole entry): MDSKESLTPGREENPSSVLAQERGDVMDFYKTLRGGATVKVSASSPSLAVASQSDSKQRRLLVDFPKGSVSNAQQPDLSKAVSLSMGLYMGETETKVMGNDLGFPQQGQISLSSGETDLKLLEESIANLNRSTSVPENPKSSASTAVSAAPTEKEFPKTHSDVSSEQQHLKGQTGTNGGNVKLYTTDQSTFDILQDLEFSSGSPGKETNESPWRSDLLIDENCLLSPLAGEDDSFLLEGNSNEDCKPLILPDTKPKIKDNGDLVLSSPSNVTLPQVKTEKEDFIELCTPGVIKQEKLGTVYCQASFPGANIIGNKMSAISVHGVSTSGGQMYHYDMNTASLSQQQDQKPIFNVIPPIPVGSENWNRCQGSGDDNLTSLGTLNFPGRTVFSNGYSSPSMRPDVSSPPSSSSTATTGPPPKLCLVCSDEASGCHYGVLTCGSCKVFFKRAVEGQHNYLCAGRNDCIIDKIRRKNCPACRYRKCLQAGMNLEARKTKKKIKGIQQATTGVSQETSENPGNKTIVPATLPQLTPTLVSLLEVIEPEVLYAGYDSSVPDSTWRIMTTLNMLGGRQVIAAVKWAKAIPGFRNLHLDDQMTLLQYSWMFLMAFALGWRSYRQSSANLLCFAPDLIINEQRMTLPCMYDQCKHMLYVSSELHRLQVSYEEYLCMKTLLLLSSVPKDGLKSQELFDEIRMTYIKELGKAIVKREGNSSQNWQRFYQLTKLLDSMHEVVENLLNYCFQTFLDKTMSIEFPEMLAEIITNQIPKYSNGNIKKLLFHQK

[3] = molecular target: T2, Androgen receptor (Rattus norvegicus, UniProt P15207)
T2 sequence (P15207 whole entry): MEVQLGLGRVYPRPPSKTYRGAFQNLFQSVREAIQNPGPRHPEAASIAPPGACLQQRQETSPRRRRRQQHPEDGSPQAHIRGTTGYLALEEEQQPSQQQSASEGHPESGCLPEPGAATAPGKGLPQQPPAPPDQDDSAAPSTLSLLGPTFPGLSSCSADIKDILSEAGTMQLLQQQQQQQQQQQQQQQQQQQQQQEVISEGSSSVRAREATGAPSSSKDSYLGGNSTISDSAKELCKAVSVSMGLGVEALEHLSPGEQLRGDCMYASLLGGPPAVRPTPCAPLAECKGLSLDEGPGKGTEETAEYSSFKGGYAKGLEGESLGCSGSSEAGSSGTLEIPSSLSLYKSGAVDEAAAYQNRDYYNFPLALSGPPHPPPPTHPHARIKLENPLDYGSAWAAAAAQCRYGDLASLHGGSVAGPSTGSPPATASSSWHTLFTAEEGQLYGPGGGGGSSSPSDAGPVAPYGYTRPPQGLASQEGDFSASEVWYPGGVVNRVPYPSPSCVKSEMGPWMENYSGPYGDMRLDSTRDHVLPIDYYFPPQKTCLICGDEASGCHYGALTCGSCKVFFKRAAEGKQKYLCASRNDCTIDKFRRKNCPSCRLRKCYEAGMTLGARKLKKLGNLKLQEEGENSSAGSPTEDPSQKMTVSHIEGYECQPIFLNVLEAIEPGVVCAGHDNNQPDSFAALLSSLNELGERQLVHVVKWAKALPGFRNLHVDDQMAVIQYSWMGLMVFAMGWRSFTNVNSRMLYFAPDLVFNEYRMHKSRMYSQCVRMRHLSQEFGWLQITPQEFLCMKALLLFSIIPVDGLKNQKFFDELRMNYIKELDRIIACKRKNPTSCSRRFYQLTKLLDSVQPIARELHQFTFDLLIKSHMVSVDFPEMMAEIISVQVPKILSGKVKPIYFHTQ

[4] = molecular target: T3, Estrogen receptor (Homo sapiens, UniProt P03372); settings: sf9
T3 sequence (P03372 whole entry): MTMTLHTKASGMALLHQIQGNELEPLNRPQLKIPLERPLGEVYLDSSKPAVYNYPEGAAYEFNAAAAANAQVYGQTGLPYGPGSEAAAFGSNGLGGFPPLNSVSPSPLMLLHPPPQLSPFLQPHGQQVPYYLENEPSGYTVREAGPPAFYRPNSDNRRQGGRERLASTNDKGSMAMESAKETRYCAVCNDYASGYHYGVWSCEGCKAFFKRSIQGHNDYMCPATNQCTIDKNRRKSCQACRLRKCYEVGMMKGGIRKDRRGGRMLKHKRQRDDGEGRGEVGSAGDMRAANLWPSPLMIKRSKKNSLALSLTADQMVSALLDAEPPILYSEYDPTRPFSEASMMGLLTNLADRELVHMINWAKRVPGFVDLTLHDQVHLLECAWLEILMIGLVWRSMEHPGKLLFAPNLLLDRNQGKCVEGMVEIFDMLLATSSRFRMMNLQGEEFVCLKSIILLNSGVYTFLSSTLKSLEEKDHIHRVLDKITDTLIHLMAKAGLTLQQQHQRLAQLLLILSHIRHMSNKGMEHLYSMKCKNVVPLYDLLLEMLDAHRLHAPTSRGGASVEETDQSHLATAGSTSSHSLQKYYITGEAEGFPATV
Note: in other assays of this panel Not Active means under 50% inhibition at 10 µM.

Sequence of Cytochrome P450 3A4 (P08684 whole entry): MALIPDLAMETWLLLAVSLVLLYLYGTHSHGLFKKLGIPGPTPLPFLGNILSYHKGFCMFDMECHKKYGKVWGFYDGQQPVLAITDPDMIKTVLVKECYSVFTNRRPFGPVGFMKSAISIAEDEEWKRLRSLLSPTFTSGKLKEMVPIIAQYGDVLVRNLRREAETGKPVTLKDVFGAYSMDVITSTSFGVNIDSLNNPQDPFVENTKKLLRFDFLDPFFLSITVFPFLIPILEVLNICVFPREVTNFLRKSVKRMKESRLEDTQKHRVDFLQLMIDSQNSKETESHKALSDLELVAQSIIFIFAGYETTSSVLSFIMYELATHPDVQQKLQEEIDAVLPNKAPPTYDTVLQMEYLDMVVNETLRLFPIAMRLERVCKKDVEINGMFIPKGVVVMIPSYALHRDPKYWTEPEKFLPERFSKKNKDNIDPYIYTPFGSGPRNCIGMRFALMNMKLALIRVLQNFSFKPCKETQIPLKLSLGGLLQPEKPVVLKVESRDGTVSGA

CN1CCN2c3ccccc3Cc3ccccc3C2C1 (stereo not drawn) [MIANSERIN]
Not Active: IC50 [1] | Ki [1] | IC50 [2] | IC50 [3] | IC50 [4]

O=C1c2c(O)ccc(O)c2C(=O)c2c(NCCNCCO)ccc(NCCNCCO)c21 [MITOXANTRONE]
Not Active: IC50 [2] | IC50 [3]

CC(C)(O)c1ccccc1CC[C@@H](SCC1(CC(=O)O)CC1)c1cccc(/C=C/c2ccc3ccc(Cl)cc3n2)c1 [MONTELUKAST]
Not Active: IC50 [1] | Ki [1] | IC50 [2] | IC50 [3] | IC50 [4]

COc1c(C)c2c(c(O)c1C/C=C(\C)CCC(=O)OCCN1CCOCC1)C(=O)OC2 [MYCOPHENOLATE MOFETIL]
Not Active: IC50 [1] | Ki [1] | IC50 [2] | IC50 [3] | IC50 [4]

CN(N=O)C(=O)N[C@@H](C=O)[C@@H](O)[C@H](O)[C@H](O)CO [STREPTOZOCIN]
Not Active: IC50 [1] | Ki [1] | IC50 [2] | IC50 [3] | IC50 [4]

C=CC[C@@H]1/C=C(\C)C[C@H](C)C[C@H](OC)[C@H]2O[C@@](O)(C(=O)C(=O)N3CCCC[C@H]3C(=O)O[C@H](/C(C)=C/[C@@H]3CC[C@@H](O)[C@H](OC)C3)[C@H](C)[C@@H](O)CC1=O)[C@H](C)C[C@@H]2OC [TACROLIMUS ANHYDROUS]
Not Active: IC50 [2] | IC50 [3] | IC50 [4]

CC1CN(c2cc3c(cc2F)c(=O)c(C(=O)O)cn3-c2ccc(F)cc2F)CCN1 (stereo not drawn) [TEMAFLOXACIN]
Not Active: IC50 [1] | Ki [1] | IC50 [2] | IC50 [4]

CN(C)[C@@H]1C(O)=C(C(N)=O)C(=O)[C@@]2(O)C(O)=C3C(=O)c4c(O)cccc4[C@@](C)(O)[C@H]3C[C@@H]12 [TETRACYCLINE]
Not Active: IC50 [1] | Ki [1] | IC50 [2] | IC50 [3]

COc1cccc(C2(O)CCCCC2CN(C)C)c1 (stereo not drawn) [TRAMADOL]
Not Active: IC50 [2] | IC50 [3] | IC50 [4]

NC(CO)(CO)CO [TROMETHAMINE]
Not Active: IC50 [1] | Ki [1] | IC50 [2] | IC50 [4]

CC(C)[C@H](N)C(=O)OCCOCn1cnc2c(=O)nc(N)[nH]c21 [VALACYCLOVIR]
Not Active: IC50 [1] | Ki [1] | IC50 [2] | IC50 [4]

CN[C@H](CC(C)C)C(=O)N[C@H]1C(=O)N[C@@H](CC(N)=O)C(=O)N[C@H]2C(=O)N[C@H]3C(=O)N[C@H](C(=O)N[C@H](C(=O)O)c4cc(O)cc(O)c4-c4cc3ccc4O)[C@H](O)c3ccc(c(Cl)c3)Oc3cc2cc(c3O[C@@H]2O[C@H](CO)[C@@H](O)[C@H](O)[C@H]2O[C@H]2C[C@](C)(N)[C@H](O)[C@H](C)O2)Oc2ccc(cc2Cl)[C@H]1O [VANCOMYCIN]
Not Active: IC50 [1] | Ki [1] | IC50 [2] | IC50 [4]
